Results from US11453703B2, “Heterotandem bicyclic peptide complexes” (BicycleTX Limited, priority 2018, dated 2022).
Starred links: 1 amine or outer side, 2 acyl side, 3 side chain; linkers in the order of their positions; H or OH if unused. Positions of bridges follow the written chain, without caps; N, C: chain ends. Non-standard residues stand in square brackets, D forms with d. Residues, ends and D or L forms follow the SMILES beside them. Chains are numbered I, II in the order given. TATA = O=C(CC[*:1])N1CN(C(=O)CC[*:2])CN(C(=O)CC[*:3])C1; X2 = O=C(CCOCCOCCOCCOCCOCCn1cc(CCC(=O)[*:2])nn1)[*:1]; Hyp = O=C(O)[C@@H]1C[C@@H](O)CN1; hArg = N=C(N)NCCCC[C@H](N)C(=O)O; tBuAla = CC(C)(C)C[C@H](N)C(=O)O; Nle = CCCC[C@H](N)C(=O)O

Experiments:
CD137 [1] = molecular target: T1, CD137 (Homo sapiens, UniProt Q07011); test: CD137 reporter assay, co-culture with EphA2 tumour cells; type: cell-based; design: host or cells: Jurkat reporter cells; settings: tumour target EphA2, co-culture with PC3, 6 h
Method: (§1) Culture medium referred to as R1 media is prepared by adding 1% FBS to RPMI-1640 (component of Promega kit CS196005). Serial dilutions of test articles in R1 are prepared in a sterile 96 well-plate. Use 25 μl per well of test articles or R1 (as a background control) to designated wells in white cell culture plate. Tumour cells* are harvested and resuspended at a concentration of 400,000 cells/mL in R1 media. Twenty five (25) μL/well tumour cells are used in white cell culture plate. Jurkat cells (Promega kit CS196005, 0.5 mL) are thawed in the water bath and then added to 5 ml pre-warmed R1 medium. Twenty five (25) μL/well Jurkat cells are used in white cell culture plate. Incubate the cells and test articles for 6h at 37° C., 5% CO2. At the end of 6 h, add 75 μl/well Bio-Glo™ (Promega) and incubate for 10 min before reading luminescence in a plate reader (Clariostar, BMG). The fold change relative to cells (Jurkat cells+Cell line used in co-culture) is calculated and plotted in GraphPad Prism as log(agonist) vs response to determine EC50 (nM) and Fold Induction over background (Max)

CD137 [2] = molecular target: T1, CD137; test: CD137 reporter assay, co-culture with PD-L1 expressing cell line RKO; type: cell-based; design: host or cells: Jurkat reporter cells; settings: tumour target PD-L1, co-culture with RKO, 6 h
Method: as §1

T1 sequence (Q07011 24-255): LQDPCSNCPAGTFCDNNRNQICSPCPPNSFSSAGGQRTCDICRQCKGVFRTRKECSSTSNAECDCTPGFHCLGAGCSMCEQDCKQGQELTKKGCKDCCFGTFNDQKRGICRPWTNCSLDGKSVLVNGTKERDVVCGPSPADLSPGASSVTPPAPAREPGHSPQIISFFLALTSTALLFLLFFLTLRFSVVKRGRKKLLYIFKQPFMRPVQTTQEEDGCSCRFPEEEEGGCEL

Structure (SMILES)	EC50 (CD137 [1])	Fold Induction over Background (CD137 [1])	EC50 (CD137 [2])	Fold Induction over Background (CD137 [2])
CCCC[C@@H]1NC(=O)[C@H](Cc2ccc(O)cc2)NC(=O)[C@@H]2CCCN2C(=O)[C@H](CC(=O)O)NC(=O)[C@H](C)NC(=O)[C@H](Cc2ccccc2)NC(=O)[C@@H]2CSCCC(=O)N3CN(CN(C3)C(=O)CCSC[C@@H](C(=O)N[C@@H](C)C(N)=O)NC1=O)C(=O)CCSC[C@H](NC(C)=O)C(=O)N[C@@H](CC(C)(C)C)C(=O)N1CCC[C@H]1C(=O)N[C@@H](CCCCNC(=O)CCc1cn(CCOCCOCCOCCOCCOCCC(=O)N[C@@H](C)C(=O)N[C@@H](CCCCNC(=N)N)C(=O)N[C@@H](CC(=O)O)C(=O)N[C@H]3CSCCC(=O)N4CN5CN(C4)C(=O)CCSC[C@H](NC(=O)[C@H](CC(C)C)NC(=O)[C@@H]4CCCN4C(=O)[C@H](CC(N)=O)NC(=O)[C@H](C(C)C)NC(=O)[C@H](CC(C)C)NC(=O)[C@@H]4C[C@@H](O)CN4C3=O)C(=O)N[C@@H](CC(C)C)C(=O)N[C@@H](Cc3c[nH]cn3)C(=O)N3CCC[C@H]3C(=O)N[C@H](CC(=O)O)C(=O)N[C@@H](Cc3c[nH]c4ccccc34)C(=O)N[C@@H](CCCCNC(=N)N)C(=O)N[C@H](C(N)=O)CSCCC5=O)nn1)C(=O)N[C@H](C)C(=O)N1CCC[C@H]1C(=O)N[C@@H](Cc1ccc(O)cc1)C(=O)N2 [BCY10574] (I: A[hArg]DC[Hyp]LVNPLCLHP[dD]W[hArg]C-NH2 / II: Ac-C[tBuAla]PK[dA]PYCFADPY[Nle]CA-NH2; linker I:4-I:11-I:18, II:1-II:8-II:15 via TATA; linker I:N-II:4 via X2)	1 nM	32 fold	–	–
CCCC[C@@H]1NC(=O)[C@H](Cc2ccc(O)cc2)NC(=O)[C@@H]2CCCN2C(=O)[C@H](CC(=O)O)NC(=O)[C@H](C)NC(=O)[C@H](Cc2ccccc2)NC(=O)[C@@H]2CSCCC(=O)N3CN(CN(C3)C(=O)CCSC[C@@H](C(=O)N[C@@H](C)C(N)=O)NC1=O)C(=O)CCSC[C@H](NC(C)=O)C(=O)N[C@@H](CC(C)(C)C)C(=O)N1CCC[C@H]1C(=O)N[C@@H](CCC(=O)O)C(=O)N[C@H](CCCCNC(=O)CCc1cn(CCOCCOCCOCCOCCOCCC(=O)N[C@@H](C)C(=O)N[C@@H](CCCCNC(=N)N)C(=O)N[C@@H](CC(=O)O)C(=O)N[C@H]3CSCCC(=O)N4CN5CN(C4)C(=O)CCSC[C@H](NC(=O)[C@H](CC(C)C)NC(=O)[C@@H]4CCCN4C(=O)[C@H](CC(N)=O)NC(=O)[C@H](C(C)C)NC(=O)[C@H](CC(C)C)NC(=O)[C@@H]4C[C@@H](O)CN4C3=O)C(=O)N[C@@H](CC(C)C)C(=O)N[C@@H](Cc3c[nH]cn3)C(=O)N3CCC[C@H]3C(=O)N[C@H](CC(=O)O)C(=O)N[C@@H](Cc3c[nH]c4ccccc34)C(=O)N[C@@H](CCCCNC(=N)N)C(=O)N[C@H](C(N)=O)CSCCC5=O)nn1)C(=O)N1CCC[C@H]1C(=O)N[C@@H](Cc1ccc(O)cc1)C(=O)N2 [BCY10575] (I: A[hArg]DC[Hyp]LVNPLCLHP[dD]W[hArg]C-NH2 / II: Ac-C[tBuAla]PE[dK]PYCFADPY[Nle]CA-NH2; linker I:4-I:11-I:18, II:1-II:8-II:15 via TATA; linker I:N-II:5 via X2)	0.62 nM	38 fold	–	–
CCCC[C@@H]1NC(=O)[C@H](Cc2ccc(O)cc2)NC(=O)[C@@H]2CCCN2C(=O)[C@H](CC(=O)O)NC(=O)[C@H](C)NC(=O)[C@H](Cc2ccccc2)NC(=O)[C@@H]2CSCCC(=O)N3CN(CN(C3)C(=O)CCSC[C@@H](C(=O)N[C@@H](CNC(=O)CCc3cn(CCOCCOCCOCCOCCOCCC(=O)N[C@@H](C)C(=O)N[C@@H](CCCCNC(=N)N)C(=O)N[C@@H](CC(=O)O)C(=O)N[C@H]4CSCCC(=O)N5CN6CN(C5)C(=O)CCSC[C@H](NC(=O)[C@H](CC(C)C)NC(=O)[C@@H]5CCCN5C(=O)[C@H](CC(N)=O)NC(=O)[C@H](C(C)C)NC(=O)[C@H](CC(C)C)NC(=O)[C@@H]5C[C@@H](O)CN5C4=O)C(=O)N[C@@H](CC(C)C)C(=O)N[C@@H](Cc4c[nH]cn4)C(=O)N4CCC[C@H]4C(=O)N[C@H](CC(=O)O)C(=O)N[C@@H](Cc4c[nH]c5ccccc45)C(=O)N[C@@H](CCCCNC(=N)N)C(=O)N[C@H](C(N)=O)CSCCC6=O)nn3)C(N)=O)NC1=O)C(=O)CCSC[C@H](NC(C)=O)C(=O)N[C@@H](CC(C)(C)C)C(=O)N1CCC[C@H]1C(=O)N[C@@H](CCC(=O)O)C(=O)N[C@H](C)C(=O)N1CCC[C@H]1C(=O)N[C@@H](Cc1ccc(O)cc1)C(=O)N2 [BCY10576]	0.51 nM	38 fold	–	–
CCCC[C@@H]1NC(=O)[C@H](Cc2ccc(O)cc2)NC(=O)[C@@H]2CCCN2C(=O)[C@H](CC(=O)O)NC(=O)[C@H](C)NC(=O)[C@H](Cc2ccccc2)NC(=O)[C@@H]2CSCCC(=O)N3CN(CN(C3)C(=O)CCSC[C@@H](C(=O)N[C@@H](CNC(=O)Cn3cc(CCC(=O)NCCC(=O)N(C)CC(=O)N(C)CC(=O)N(C)CC(=O)N(C)CC(=O)N(C)CC(=O)N(C)CC(=O)N(C)CC(=O)N(C)CC(=O)N(C)CC(=O)N(C)CC(=O)N[C@@H](C)C(=O)N[C@@H](CCCCNC(=N)N)C(=O)N[C@@H](CC(=O)O)C(=O)N[C@H]4CSCCC(=O)N5CN6CN(C5)C(=O)CCSC[C@H](NC(=O)[C@H](CC(C)C)NC(=O)[C@@H]5CCCN5C(=O)[C@H](CC(N)=O)NC(=O)[C@H](C(C)C)NC(=O)[C@H](CC(C)C)NC(=O)[C@@H]5C[C@@H](O)CN5C4=O)C(=O)N[C@@H](CC(C)C)C(=O)N[C@@H](Cc4c[nH]cn4)C(=O)N4CCC[C@H]4C(=O)N[C@H](CC(=O)O)C(=O)N[C@@H](Cc4c[nH]c5ccccc45)C(=O)N[C@@H](CCCCNC(=N)N)C(=O)N[C@H](C(N)=O)CSCCC6=O)nn3)C(N)=O)NC1=O)C(=O)CCSC[C@H](NC(C)=O)C(=O)N[C@@H](CC(C)(C)C)C(=O)N1CCC[C@H]1C(=O)N[C@@H](CCC(=O)O)C(=O)N[C@H](C)C(=O)N1CCC[C@H]1C(=O)N[C@@H](Cc1ccc(O)cc1)C(=O)N2 [BCY10577]	0.28 nM	37 fold	–	–
CCCC[C@@H]1NC(=O)[C@H](Cc2ccc(O)cc2)NC(=O)[C@@H]2CCCN2C(=O)[C@H](CC(=O)O)NC(=O)[C@H](C)NC(=O)[C@H](Cc2ccccc2)NC(=O)[C@@H]2CSCCC(=O)N3CN(CN(C3)C(=O)CCSC[C@@H](C(=O)N[C@@H](CNC(=O)CCOCCOCCOCCOCCOCCOCCOCCOCCOCCOCCOCCOCCn3cc(CCC(=O)NCCC(=O)N(C)CC(=O)N(C)CC(=O)N(C)CC(=O)N(C)CC(=O)N(C)CC(=O)N(C)CC(=O)N(C)CC(=O)N(C)CC(=O)N(C)CC(=O)N(C)CC(=O)N[C@@H](CO)C(=O)N[C@@H](CC(=O)O)C(=O)N[C@@H](CCCCN)C(=O)N[C@H]4CSCCC(=O)N5CN6CN(C5)C(=O)CCSC[C@H](NC(=O)[C@H](CCSC)NC(=O)[C@H]([C@@H](C)O)NC(=O)[C@H](CC(C)C)NC(=O)[C@H](Cc5c[nH]c7ccccc57)NC(=O)CNC(=O)[C@H](C)NC(=O)[C@H](CO)NC4=O)C(=O)N[C@@H](CCC(N)=O)C(=O)N[C@@H](CCCCN)C(=O)N[C@@H](CC(C)C)C(=O)N[C@@H](Cc4c[nH]cn4)C(=O)N[C@@H](CC(C)C)C(=O)N[C@H](C(N)=O)CSCCC6=O)nn3)C(N)=O)NC1=O)C(=O)CCSC[C@H](NC(C)=O)C(=O)N[C@@H](CC(C)(C)C)C(=O)N1CCC[C@H]1C(=O)N[C@@H](CCC(=O)O)C(=O)N[C@H](C)C(=O)N1CCC[C@H]1C(=O)N[C@@H](Cc1ccc(O)cc1)C(=O)N2 [BCY10580]	–	–	28 nM	3 fold
